Test results from patent US20240398812A1 (Caraway Therapeutics, Inc., priority 2021, published 2024).

What was measured:
TRPML3 = target: T1, TRPML3 (Homo sapiens, UniProt Q8TDD5); assay: Fluorescent TRPML3 assay (as for TRPML1); assay type: cell-based
T1 construct: expressed in transfected cells
T1 sequence (Q8TDD5 1-553): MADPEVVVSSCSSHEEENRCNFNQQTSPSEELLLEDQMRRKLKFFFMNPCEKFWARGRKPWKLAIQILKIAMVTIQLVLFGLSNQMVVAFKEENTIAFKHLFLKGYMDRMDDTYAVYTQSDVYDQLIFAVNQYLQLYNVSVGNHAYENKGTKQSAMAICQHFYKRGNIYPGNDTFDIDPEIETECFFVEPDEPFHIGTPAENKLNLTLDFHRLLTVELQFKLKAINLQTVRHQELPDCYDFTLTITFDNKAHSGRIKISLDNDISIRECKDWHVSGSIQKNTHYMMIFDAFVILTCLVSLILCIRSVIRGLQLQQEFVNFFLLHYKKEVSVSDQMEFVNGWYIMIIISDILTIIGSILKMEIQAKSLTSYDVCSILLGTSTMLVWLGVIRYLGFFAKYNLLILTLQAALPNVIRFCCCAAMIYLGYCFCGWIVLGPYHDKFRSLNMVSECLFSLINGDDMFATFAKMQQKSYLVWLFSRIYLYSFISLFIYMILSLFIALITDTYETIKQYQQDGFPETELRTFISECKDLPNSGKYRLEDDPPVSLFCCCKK
How it was run: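 EC50 came from non-linear regression of percent activity, set against on-plate positive and negative controls, using Fluo4 fluorescence (ex 480, em 540 nm). Compounds ran in triplicate from 6 nM to 20 µM final in half-log steps. Doxycycline-induced (0.5 ug/mL) HEK-293 Trex cells expressing surface-directed mutant channel were in 10 mM calcium Ringer's.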

human TRPML1 = human TRPML1 (Homo sapiens, UniProt Q9GZU1); assay: Fluorescent TRPML1 assay (Fluo4-AM calcium fluorescence, HEK-293 Trex cells); assay type: cell-based
How it was run: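 Agonist EC50 from non-linear regression of percent activity versus on-plate controls, calcium signal read at 480/540 nm. Compounds spanned 6 nM–20 μM final in triplicate. Cells: doxycycline-induced HEK-293 Trex with cell-surface human TRPML1 mutant, Fluo4-AM loaded, in Ringer's containing 10 mM calcium.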

Sequence of human TRPML1 (Q9GZU1 whole entry L15A/L16A/L577A/L578A, form open): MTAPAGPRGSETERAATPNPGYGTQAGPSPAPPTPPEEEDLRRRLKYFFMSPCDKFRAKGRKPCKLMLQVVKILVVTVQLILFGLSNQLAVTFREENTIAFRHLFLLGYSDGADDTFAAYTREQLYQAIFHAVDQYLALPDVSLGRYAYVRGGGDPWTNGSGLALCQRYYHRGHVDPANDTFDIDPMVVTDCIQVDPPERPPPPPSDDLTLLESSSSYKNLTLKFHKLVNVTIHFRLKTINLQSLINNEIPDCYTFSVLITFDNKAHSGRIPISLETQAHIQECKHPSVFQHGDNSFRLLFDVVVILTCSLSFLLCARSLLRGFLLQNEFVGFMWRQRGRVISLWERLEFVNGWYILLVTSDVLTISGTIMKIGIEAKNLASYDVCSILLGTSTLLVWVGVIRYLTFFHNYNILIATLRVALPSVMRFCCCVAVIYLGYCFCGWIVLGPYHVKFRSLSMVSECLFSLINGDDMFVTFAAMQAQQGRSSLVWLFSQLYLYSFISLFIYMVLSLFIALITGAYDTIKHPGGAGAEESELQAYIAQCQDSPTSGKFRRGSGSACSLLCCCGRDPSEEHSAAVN

| EC50 (TRPML3; Table 3, compounds 201-283) | EC50 (human TRPML1; Table 3, compounds 201-283) | EC50 (TRPML3; Table 3, compounds 101-177) | EC50 (human TRPML1; Table 3, compounds 101-177) | Compound |
| --- | --- | --- | --- | --- |
| < 100 nM | < 100 nM |  |  | C[C@H]1CN(C(=O)C(C)(C)C)CCN1c1nccc2c1c(N1CCC1)cn2-c1cccc(F)c1 [Compound 227, (S)-1-(4-(3-(azetidin-1-yl)-1-(3-fluorophenyl)-1H-pyrrolo[3,2-c]pyridin-4-yl)-3-methylpiperazin-1-yl)-2,2-dimethylpropan-1-one] |
| 100 to 500 nM | < 100 nM |  |  | C[C@@H]1CN(c2ncnc3c2c(C2CC2)cn3-c2cc(F)cc(F)c2)[C@@H](C)CN1C(=O)C(C)(C)C [Compound 205, 1-((2R,5S)-4-(5-cyclopropyl-7-(3,5-difluorophenyl)-7H-pyrrolo[2,3-d]pyrimidin-4-yl)-2,5-dimethylpiperazin-1-yl)-2,2-dimethylpropan-1-one] |
|  |  | 100 to 500 nM | 500 to 2000 nM | CC(C)C(=O)N1CCN(c2ncnc3c2c(N2CCCC2)cn3-c2cc(C#N)ccn2)C[C@H]1C [Compound 148, (R)-2-(4-(4-isobutyryl-3-methylpiperazin-1-yl)-5-(pyrrolidin-1-yl)-7H-pyrrolo[2,3-d]pyrimidin-7-yl)isonicotinonitrile] |
|  |  | < 100 nM | 100 to 500 nM | CC(C)C(=O)N1CCN(c2ncnc3c2c(-c2ccccc2F)cn3-c2cc(C#N)ncn2)[C@@H](C)C1 [Compound 152, (S)-6-(5-(2-fluorophenyl)-4-(4-isobutyryl-2-methylpiperazin-1-yl)-7H-pyrrolo[2,3-d]pyrimidin-7-yl)pyrimidine-4-carbonitrile] |
| < 100 nM | < 100 nM |  |  | C[C@@H]1CN(c2ncnc3c2c(N2CCC2)cn3-c2cccc(F)c2)[C@@H](C)CN1C(=O)C(C)(C)C [Compound 219, 1-((2R,5S)-4-(5-(azetidin-1-yl)-7-(3-fluorophenyl)-7H-pyrrolo[2,3-d]pyrimidin-4-yl)2,5-dimethylpiperazin-1-yl)-2,2-dimethylpropan-1-one] |
|  |  | < 100 nM | < 100 nM | CC(C)C(=O)N1CCN(c2ncnc3c2c(-c2ccccc2)cn3-c2cc(C#N)ccn2)C[C@H]1C [Compound 119, (R)-2-(4-(4-isobutyryl-3-methylpiperazin-1-yl)-5-phenyl-7H-pyrrolo[2,3-d]pyrimidin-7-yl)isonicotinonitrile] |
| 100 to 500 nM | 100 to 500 nM |  |  | CC(C)C(=O)N1CCN(c2ncnc3c(-c4cc(C#N)ccn4)cn(-c4ccccc4F)c23)[C@@H](C)C1 [Compound 212, (S)-2-(5-(2-fluorophenyl)-4-(4-isobutyryl-2-methylpiperazin-1-yl)-5H-pyrrolo[3,2-d]pyrimidin-7-yl)isonicotinonitrile] |
| < 100 nM | < 100 nM |  |  | C[C@@H]1CN(c2ncnc3c2c(C2CCC2)cn3-c2cc(C#N)ccn2)[C@@H](C)CN1C(=O)C1(F)CC1 [Compound 236, 2-(5-cyclobutyl-4-((2S,5R)-4-(1-fluorocyclopropane-1-carbonyl)-2,5-dimethylpiperazin-1-yl)-7H-pyrrolo[2,3-d]pyrimidin-7-yl)isonicotinonitrile] |
| 500 to 2000 nM | 500 to 2000 nM |  |  | C[C@@H]1CN(c2ncnc3c2c(C2CCC2)cn3-c2cccc(Cl)c2)[C@@H](C)CN1C(=O)C1(F)CC1 [Compound 254, ((2R,5S)-4-(7-(3-chlorophenyl)-5-cyclobutyl-7H-pyrrolo[2,3-d]pyrimidin-4-yl)-2,5-dimethylpiperazin-1-yl)(1-fluorocyclopropyl)methanone] |
| < 100 nM | < 100 nM |  |  | C[C@H]1CN(C(=O)C(C)(C)C)CCN1c1nccc2c1c(C1CC1)cn2-c1cccc(F)c1 [Compound 228, (S)-1-(4-(3-cyclopropyl-1-(3-fluorophenyl)-1H-pyrrolo[3,2-c]pyridin-4-yl)-3-methylpiperazin-1-yl)-2,2-dimethylpropan-1-one] |
|  |  | < 100 nM | < 100 nM | CC(C)(O)C(=O)N1CCN(c2ncnc3c2c(-c2ccccc2F)cn3-c2cc(C#N)ccn2)C2(CC2)C1 [Compound 174, 2-(5-(2-fluorophenyl)-4-(7-(2-hydroxy-2-methylpropanoyl)-4,7-diazaspiro[2.5]octan-4-yl)-7H-pyrrolo[2,3-d]pyrimidin-7-yl)isonicotinonitrile] |
|  |  | 100 to 500 nM | 100 to 500 nM | C[C@H]1CN(C(=O)CC(C)(C)C)CCN1c1ncnc2c1c(C1CC1)cn2-c1cc(C#N)ccn1 [Compound 136, (S)-2-(5-cyclopropyl-4-(4-(3,3-dimethylbutanoyl)-2-methylpiperazin-1-yl)-7H-pyrrolo[2,3-d]pyrimidin-7-yl)isonicotinonitrile] |
| 500 to 2000 nM | 100 to 500 nM |  |  | COC(C)(C)C(=O)N1CCN(c2ncnc3c2c(C(F)(F)F)cn3-c2cc(C#N)ccn2)[C@@H](C)C1 [Compound 210, (S)-2-(4-(4-(2-methoxy-2-methylpropanoyl)-2-methylpiperazin-1-yl)-5-(trifluoromethyl)-7H-pyrrolo[2,3-d]pyrimidin-7-yl)isonicotinonitrile] |
